Reference: US8927717B1, “Thiochromeno[2,3-c]quinolin-12-one derivatives, preparation method and application thereof” (National Defense Medical Center, priority 2014, dated 2015)

Tests used:
Type in all cases: cell-based
[1] = tested on: MDA-MB-435; settings: Melanoma; 10^−5 molar; 48 hours; SRB
[2] = tested on: SK-MEL-28
[3] = tested on: UACC-62
[4] = tested on: OVCAR-5
[5] = tested on: OVCAR-8
[6] = tested on: NCI/ADR-RES
[7] = tested on: 786-0
[8] = tested on: A498
[9] = tested on: ACHN
[10] = tested on: RXF 393
[11] = tested on: SN12C
[12] = tested on: TK-10; settings: Renal cancer; 10^−5 molar; 48 hours; SRB
[13] = tested on: UO-31
[14] = tested on: DU-145
[15] = tested on: MCF7
[16] = tested on: MDA-MB-231/ATCC
[17] = tested on: HS 578T
[18] = tested on: T-47D; settings: Breast cancer; 10^−5 molar; 48 hours; SRB
[19] = tested on: MDA-MB-486
[20] = tested on: 60 cancer cell lines; test: NCI 60-cell screen, SRB, whole panel (mean, delta, range)
[21] = Homo sapiens, SK-MEL-28, five dose
[22] = Melanoma, 10^−5 molar, 48 hours, SRB
[23] = Ovarian cancer, 10^−5 molar, 48 hours, SRB
[24] = Renal cancer, 10^−5 molar, 48 hours, SRB
[25] = Breast cancer, 10^−5 molar, 48 hours, SRB

CN(C)CCNc1nc2ccccc2c2c(=O)c3cc(Cl)ccc3sc12 [Compound N7, 10-Chloro-6-((2-(dimethylamino)ethyl)amino)-12H-thiochromeno[2,3-c]quinolin-12-one]
Growth percent MDA-MB-435 [1]: −64.64% | GI50 [2, 21]: 1.81 µM | LC50 [2, 21]: 5.89 µM | Growth percent SK-MEL-28 [2, 22]: −76.79% | TGI ([2]; SK-MEL-28, five dose): 3.27 µM | GI50 ([3]; Homo sapiens, UACC-62, five dose): 1.7 µM | CC50 ([3]; Homo sapiens, UACC-62, five dose, read-out: LC50 (the source's name)): 5.88 µM | Growth percent UACC-62 [3, 22]: −76.58% | TGI ([3]; UACC-62, five dose): 3.16 µM | GI50 ([4]; Homo sapiens, OVCAR-5, five dose): 1.45 µM | CC50 ([4]; Homo sapiens, OVCAR-5, five dose, read-out: LC50 (the source's name)): 5.83 µM | TGI ([4]; OVCAR-5, five dose): 2.91 µM | Growth percent OVCAR-5 [4, 23]: 24.27% | GI50 ([5]; Homo sapiens, OVCAR-8, five dose): 1.64 µM | CC50 ([5]; Homo sapiens, OVCAR-8, five dose, read-out: LC50 (the source's name)): 6.06 µM | TGI ([5]; OVCAR-8, five dose): 3.15 µM | Growth percent OVCAR-8 [5, 23]: 1.22% | GI50 ([6]; Homo sapiens, NCI/ADR-RES, five dose): 1.67 µM | CC50 ([6]; Homo sapiens, NCI/ADR-RES, five dose, read-out: LC50 (the source's name)): 6 µM | TGI ([6]; NCI/ADR-RES, five dose): 3.17 µM | Growth percent NCI/ADR-RES [6, 23]: 23.00% | TGI ([7]; 786-0, five dose): 3.45 µM | GI50 ([7]; Homo sapiens, 786-0, five dose): 1.84 µM | CC50 ([7]; Homo sapiens, 786-0, five dose, read-out: LC50 (the source's name)): 6.46 µM | Growth percent 786-0 [7, 24]: 43.11% | TGI ([8]; A498, five dose): 9.44 µM | GI50 ([8]; Homo sapiens, A498, five dose): 2.7 µM | CC50 ([8]; Homo sapiens, A498, five dose, read-out: LC50 (the source's name)): 3.52 µM | Growth percent A498 [8, 24]: 43.17% | TGI ([9]; ACHN, five dose): 3.07 µM | GI50 ([9]; Homo sapiens, ACHN, five dose): 1.63 µM | CC50 ([9]; Homo sapiens, ACHN, five dose, read-out: LC50 (the source's name)): 5.77 µM | Growth percent ACHN [9, 24]: 7.55% | GI50 ([10]; Homo sapiens, RXF 393, five dose): 1.6 µM | CC50 ([10]; Homo sapiens, RXF 393, five dose, read-out: LC50 (the source's name)): 7.29 µM | TGI ([10]; RXF 393, five dose): 3.41 µM | Growth percent RXF 393 [10, 24]: −15.29% | GI50 ([11]; Homo sapiens, SN12C, five dose): 1.59 µM | CC50 ([11]; Homo sapiens, SN12C, five dose, read-out: LC50 (the source's name)): 6.12 µM | Growth percent SN12C [11, 24]: 48.67% | TGI ([11]; SN12C, five dose): 3.12 µM | Growth percent TK-10 [12]: −89.05% | GI50 ([13]; Homo sapiens, UO-31, five dose): 1.19 µM | CC50 ([13]; Homo sapiens, UO-31, five dose, read-out: LC50 (the source's name)): 5.22 µM | Growth percent UO-31 [13, 24]: 21.83% | TGI ([13]; UO-31, five dose): 2.50 µM | TGI ([14]; DU-145, five dose): 3.34 µM | GI50 ([14]; Homo sapiens, DU-145, five dose): 1.87 µM | CC50 ([14]; Homo sapiens, DU-145, five dose, read-out: LC50 (the source's name)): 5.99 µM | Growth percent DU-145 ([14]; Prostate cancer, 10^−5 molar, 48 hours, SRB): −80.85% | Growth percent MCF7 (Table 2: MCF) [15, 25]: −85.41% | GI50 ([15]; Homo sapiens, MCF7, five dose): 1.23 µM | CC50 ([15]; Homo sapiens, MCF7, five dose, read-out: LC50 (the source's name)): 5.71 µM | TGI ([15]; MCF7, five dose): 2.66 µM | Growth percent MDA-MB-231/ATCC [16, 25]: −37.28% | GI50 ([16]; Homo sapiens, MDA-MB-231/ATCC, five dose): 1.2 µM | CC50 ([16]; Homo sapiens, MDA-MB-231/ATCC, five dose, read-out: LC50 (the source's name)): 5.28 µM | TGI ([16]; MDA-MB-231/ATCC, five dose): 2.51 µM | Growth percent HS 578T [17, 25]: 34.31% | TGI ([17]; HS 578T, five dose): 4.02 µM | GI50 ([17]; Homo sapiens, HS 578T, five dose): 1.74 µM | CC50 ([17]; Homo sapiens, HS 578T, five dose, read-out: LC50 (the source's name)): 9.27 µM | Growth percent T-47D [18]: 26.06% | GI50 ([19]; 60 cell, MDA-MB-486, five dose): 1.47 µM | CC50 ([19]; 60 cell, MDA-MB-486, five dose, read-out: LC50 (the source's name)): 7.34 µM | Growth percent MDA-MB-486 [19, 25]: 12.81% | TGI ([19]; MDA-MB-486, five dose): 3.28 µM | GI50 ([20]; 60 cell, mean over panel, five dose): 1.66 µM | CC50 ([20]; 60 cell, mean over panel, five dose, read-out: LC50, Mean): 6.92 µM | Growth percent, Delta ([20]; delta over the cell panel, 10^−5 molar, 48 hours, SRB): 85.53% | TGI, Mean ([20]; mean over panel, five dose): 3.39 µM | Growth percent, Mean ([20]; mean over the cell panel, 10^−5 molar, 48 hours, SRB): −11.06% | Growth percent, Range ([20]; range over the cell panel, 10^−5 molar, 48 hours, SRB): 187.88%
